Source: patent US4455146A, “Novel plasters” (Hisamitsu Pharmaceutical Co., Ltd., priority 1979, dated 1984)

Assay: clinical
Conditions: for Fa at 4 h / Fa at 8 h / Percent absorption: human, in vivo, topical or ocular; for Fa at 4 h / Fa at 8 h: Percent absorption
Procedure: An experiment was carried out on 7 subjects who were healthy male adults, 25-39 years old and weighing 50-63 kg each, as mentioned hereinbelow.
The plasters and adhesive tapes so attached to the skin sites were peeled 0 hour, 4 hours and 8 hours after the application and then inserted into 15 ml test tubes, respectively, after which the test tubes were each incorporated with 5 ml of acetone, shaken lightly and allowed to stand overnight at room temperature. […] After the distillation-off of an excess of the diazomethane and ether, the residue so methylated was dissolved in 1 ml of a solution of the internal reference substance in acetone and meansured for absorbability and amount absorbed by means of GC-MF under the conditions as shown in Table 10.
The absorbency and amount absorbed were calculated from the following formulae: [formula]

[1] = 1% plaster, […] 1.4 cm, 4 hr, mean ± S.E.
[2] = 1% plaster, […] 1.4 cm, 8 hr, mean ± S.E.
[3] = 3% plaster, […] 1.4 cm, 4 hr, mean ± S.E.
[4] = 3% plaster, […] 1.4 cm, 8 hr, mean ± S.E.

Row | SMILES | Amount absorption [1] | Amount absorption [2] | Amount absorption [3] | Amount absorption [4] | Fa at 4 h [1] | Fa at 8 h [2] | Fa at 4 h [3] | Fa at 8 h [4] | Percent absorption (4 h) | Percent absorption (8 h) | Fa at 4 h | Fa at 8 h
1 | COc1ccc2c(c1)c(CC(=O)O)c(C)n2C(=O)c1ccc(Cl)cc1 [Indomethacin] | 2.30 µg | 4.92 ± 1.16 µg | 16.67 µg | 20.21 ± 2.13 µg | 1.27% | 2.71 ± 0.64% | 3.52% | 4.28 ± 0.45% |  |  |  | 
2 | CC(C(=O)O)c1ccc(-c2ccccc2)c(F)c1 (stereo not shown) [Flurbiprofen] | 9.05 µg | 10.70 ± 1.61 µg | 41.19 µg | 49.56 ± 6.92 µg |  |  |  |  | 6.98% | 8.40 ± 1.17% | 5.53% | 6.54 ± 0.99%
